# Patent publication US20240358671A1, “COMPOSITIONS AND METHODS TO TREAT SKIN DISORDERS” (THE TRUSTEES OF INDIANA UNIVERSITY, priority 2021, published 2024)
# Entries after “also recorded” stand apart in the source; their conditions may differ.
# Legend:
# DNMT3B = DNMT3B activity assay; assay type: cell-based; details: human keratinocytes; 5 μmol S-1-P, 48 h
# Experimental: Human keratinocytes cells were treated with 5 μmol of Sphingosine-1-phosphate (Avanti) for 48 h. Cells were collected and DNMT3B activity was measured using EpiQuik DNMT3B Activity/Inhibitor Screening Assay Core Kit (EPIGENTEK) according to manufacturer's instructions and using recombinant DNMT3B protein, (ACTIVE MOTIF) as a positive control for the assay.
# histone deacetylases = experiment: Histone deacetylase expression in S-1-P treated HK; assay type: cell-based, human
# Source text: (§1) FIGS. 11A-11O illustrate additional experimental results. FIG. 11A: Vector map of PPARδ promoter luciferase reporter. FIGS. 11B-11C: PPARδ drives CerS3 expression. CerS3 expression in human keratinocytes (HK) treated with PPARδ agonist (GW501516, 1 μmol/ml) or antagonist (GSK0660, 1 μmol/ml) as measured by qPCR. Data presented as mean±SEM (n=5). FIGS. 11D-11F: Upregulation of DNA methyl transferases in S-1-P treated HK. Data presented as mean±SEM (n=8). FIGS. 11G-11J: Induction of histone deacetylases in S-1P treated HK. Data presented as mean±SEM (n=8). FIGS. 11K-11N) Other histone deacetylases in S-1P treated HK. […] Data presented as mean±SEM, (n=8). FIG. 11O: miR-106b expression in HK treated with S-1-P (5 μmol/ml). Data presented as mean±SEM (n=8).
# DNA methyl transferases = experiment: DNA methyl transferase expression in S-1-P treated HK; assay type: cell-based, human
# Source text: as §1
# miR-106b = miR-106b expression in HK treated with S-1-P; assay type: cell-based, human; details: HK treated with S-1-P 5 μmol/ml
# Source text: as §1
# PPARδ = PPARδ gene expression in S-1-P treated human keratinocytes; assay type: cell-based; details: human keratinocytes treated with S-1-P, standard culture conditions
# Experimental: Spingosine-1-phosphate methylates PPARδ promoter. Cutaneous ceramide is degraded to sphingosine by bacterial ceramidase. Sphingosine is phosphorylated to sphingosine-1 phosphate (S-1-P) which is a bioactive lipid and can epigenetically downregulate gene regulation. Thus, a plausible role of S-1-P in regulating PPARδ in our experimental systems was tested. In the porcine pre-clinical model of wound biofilm infection elevated levels of S-1-P was detected following PAwt, but not PAΔCer, infection. […] Under standard culture conditions when human keratinocytes were treated with the bioactive sphingolipid S-1-P, gene expression of PPARδ was blunted. To determine whether such downregulation of PPARδ was epigenetically regulated, CpG methylation of the PPARδ promoter was studied.
# PPARδ promoter = experiment: Bisulfite sequencing of PPARδ promoter (CpG methylation); assay type: cell-based, human; details: HaCaT keratinocytes; S-1-P 5 μM, 48 hours
# Experimental: The PCR products were gel extracted (GenElute Gel Extraction Kit, Sigma, cat #NA1111-1KT) and Sanger sequencing was done using ABI 3730 Genetic Analyzer. Analysis was done using Sequencher 5.4.5 (Gene Codes Corporation, MI). Results were confirmed by cloning the purified DNA into pGEM-T Easy Vector System II (Promega, cat #A1380), followed by sequencing.
# Bisulfite conversion of DNA from HaCaT keratinocytes were transfected with Sphingosine-1-phosphate (5 μM, 48 hours) was performed using the Cells-to-CpG Bisulfite Conversion Kit (Thermo Fisher Scientific, part number: 4445555), as per manufacturer's protocol. The cells were lysed, and DNA was denatured using the denaturation reagent in a PCR tube at 50° C. for 10 min. Unmethylated cytosines were converted to uracil in the denatured DNA samples via treatment with conversion buffer containing bisulfite in a PCR reaction under following conditions: (1) 65° C. for 30 min, (2) 95° C. for 1.5 min, (3) 65° C. for 30 min, (4) 95° C. for 1.5 min, (5) 65° C. for 30 min, and (6) 4° C. up to 4 hr. This was followed by the removal of salts and desulfonation of the converted DNA in a binding column, a series of washing steps, and then elution of DNA. The converted DNA was stored at […] until further used.
smiles,measurement,setting,value
"CCCCCCCCCCCCC/C=C/[C@@H](O)[C@@H](N)COP(=O)(O)O [S-1-P, sphingosine-1 phosphate]",catalytic activity of DNA methyl transferase 3B (DNMT3B),DNMT3B,augmented catalytic activity
same,histone deacetylases expression (FIGS. 11G-11J),histone deacetylases,Induction
same,other histone deacetylases expression (FIGS. 11K-11N),histone deacetylases,No significant changes
same,DNA methyl transferases expression (FIGS. 11D-11F),DNA methyl transferases,Upregulation
same,miR-106b expression,miR-106b,Induction
same,gene expression of PPARδ,PPARδ,blunted; also recorded: epigenetically silenced
same,PPARδ promoter methylation,PPARδ promoter,caused promoter methylation
